This experiment deals with T1, Slc12a8 (Mus musculus, UniProt Q8VI23).
T1 construct: NIH3T3 cells were transfected with 5 μg of pCXN2 carrying the full-length Slc12a8 cDNA (Slc12a8-OE); expressed in transfected cells
T1 sequence (Q8VI23 1-705): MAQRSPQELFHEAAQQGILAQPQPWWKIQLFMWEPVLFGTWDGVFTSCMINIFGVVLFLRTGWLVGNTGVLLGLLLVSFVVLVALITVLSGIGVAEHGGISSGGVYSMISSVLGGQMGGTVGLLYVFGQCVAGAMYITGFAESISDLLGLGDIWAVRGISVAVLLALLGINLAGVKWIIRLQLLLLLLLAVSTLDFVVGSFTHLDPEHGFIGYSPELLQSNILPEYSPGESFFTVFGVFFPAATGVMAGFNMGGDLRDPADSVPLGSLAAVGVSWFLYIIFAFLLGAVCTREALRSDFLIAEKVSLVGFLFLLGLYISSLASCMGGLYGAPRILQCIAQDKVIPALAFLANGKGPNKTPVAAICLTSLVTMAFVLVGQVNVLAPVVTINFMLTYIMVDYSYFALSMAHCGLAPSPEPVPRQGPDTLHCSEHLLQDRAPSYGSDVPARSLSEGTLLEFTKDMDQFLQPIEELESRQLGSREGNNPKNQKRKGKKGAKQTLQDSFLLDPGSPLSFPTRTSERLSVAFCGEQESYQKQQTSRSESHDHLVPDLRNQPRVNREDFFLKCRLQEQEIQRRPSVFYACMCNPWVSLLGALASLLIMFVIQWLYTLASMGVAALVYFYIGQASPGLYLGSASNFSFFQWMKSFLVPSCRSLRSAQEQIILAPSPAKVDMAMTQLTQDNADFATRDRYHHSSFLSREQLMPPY
Put plainly: 3H-NMN uptake and displacement in Slc12a8-OE proteoliposomes. The class given is biochemical. How it is done:
Proteoliposome experiments. Proteoliposome preparation was carried out as previously described (Bruzzone, S., et al., FASEB J., 15, 10-12, 2001). Briefly, 2×10^7 control or Slc12a8-OE NIH3T3 cells were resuspended in 1 ml of lysis buffer (10 mM Tris-HCl, pH 8.3, 150 mM NaCl, 0.3 M sucrose, protease inhibitor cocktail) and disrupted using a homogenizer. The lysate was centrifuged for 10 min at 3,000×g, and the supernatant was collected and centrifuged for 15 min at 100,000×g. The membrane proteins were solubilized with buffer A (10 mM Tris-HCl, pH 8.3, containing 150 mM NaCl and 0.5% n-octyl β-glucopyranoside). Separately, total lipids were extracted from hemoglobin-free erythrocyte membranes (ghosts) as described previously (Franco, L., et al., FASEB J., 12, 1507-1520, 1998). Total lipids from human erythrocyte membranes (3 mg) were dried and resuspended with 600 μl of solubilized membrane proteins (at approximately 0.7 mg/ml protein concentration). The resulting emulsions were sonicated in ice for 1 min and dialyzed against 5 liters of buffer A without n-octyl-β-glucopyranoside (dialysis buffer) for 24 h at 4° C. Proteoliposomes were recovered, centrifuged for 15 min at 100,000×g, resuspended in 900 μl dialysis buffer and passed 5 times through a 30-gauge needle.
To examine the Na+-dependency of Slc12a8, NaCl was replaced with 150 mM LiCl. All steps were carried out at 4° C. Proteoliposomes (30 μl in triplicate for each condition) were incubated for 2, 5 or 10 min at 25° C. in the presence of […] 3H-β-NMN (specific activity, 9.1 Ci/mmole) with or without label-free nucleotides (NMN, NR, NAD, AMP; NAM or NaMN). At the end of incubations, samples were filtered on a glass fiber paper. Filters were washed with 3 ml of dialysis buffer, dried, and counted for radioactivity.
Proteoliposomes were produced by combining the membrane fractions of Slc12a8-OE or control NIH3T3 cells with the phospholipid bilayers derived from deproteinized erythrocyte plasma membrane as described supra using 22 nM, ^3H-NMN at 25° C. in proteoliposomes produced from plasma membrane fractions of Slc12a8-OE and control NIH3T3 cells in transport buffer (n=3; analyzed by one-way ANOVA with Sidak's multiple comparisons test).
In order to determine substrate specificity of Slc12a8, these Slc12a8-OE proteoliposomes were used for displacement experiments with ^3H-NMN and various cold NAD+-related compounds. Uptake of ^3H-NMN (150 nM, 25° C.) was measured at 2 min in Slc12a8-OE proteoliposomes in the presence of 150 μM competing cold compounds (NMN, NR, NAD, AMP, NaMN, and nicotinamide) in transport buffer (n=3, analyzed by ANOVA with Dunnett's test). […] Data are shown as percentages of ^3H-NMN uptake (n=3; IC50 was calculated by non-linear regression analysis).
In these experiments, the sodium ion dependency of Slc12a8 for NMN transport was evaluated using the proteoliposome system.

A word on the IC50: it is the concentration that inhibits the measured activity by half. Lower therefore signals greater potency in that assay.

With `NC(=O)c1ccc[n+]([C@@H]2O[C@H](COP(=O)([O-])O)[C@@H](O)[C@H]2O)c1` [NMN, nicotinamide mononucleotide], the “displacement of 3H-NMN” value (150 μM cold compound, 150 nM 3H-NMN, 25° C., 2 min) is on record as “complete displacement”. Besides, the IC50 (Slc12a8-OE proteoliposome system) was determined as 22.8 ± 3.6 µM.

The record behind these values is patent US12337010B2, “Compositions and methods of treatment using nicotinamide mononucleotide” (Washington University, priority 2017, dated 2025).
